# Source: ChEMBL document CHEMBL1201862, “PubChem BioAssay data set” (2004)
#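 1) Cells in 96-well plates. 2) Compound, 48 h, 5 concentrations. 3) Linear interpolation between surrounding doses. 4) Unreached endpoint = highest concentration. GI50 = concentration required for 50% inhibition of growth.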 Activity calls are given as the source filed them. Cut-off read from the data, not from the text of the source: active = GI50 up to about 1.1 µM and inactive = higher.
# Tests used:
# Test in all cases: NCI anticancer screen, dose series, 48 h
# [1] = test system: UACC-257
# [2] = test system: MDA-N
# [3] = test system: MDA-MB-435
# [4] = test system: LOX IMVI
# [5] = test system: NCI-H23
# [6] = test system: SNB-19
# [7] = test system: NCI-H226
# [8] = test system: SK-OV-3
# [9] = test system: U-251
# [10] = test system: HCT-15
# [11] = test system: RXF 393
# [12] = test system: OVCAR-4
# [13] = test system: NCI-H460
# [14] = test system: Hs-578T
# [15] = test system: KM12
# [16] = test system: Malme-3M
# [17] = test system: OVCAR-8
# [18] = test system: MOLT-4
# [19] = test system: PC-3
# [20] = test system: OVCAR-3
SMILES,GI50 [1],GI50 [2],GI50 [3],GI50 [4],GI50 [5],GI50 [6],GI50 [7],GI50 [8],GI50 [9],GI50 [10] [µM],GI50 [11],GI50 [12],GI50 [13],GI50 [14],GI50 [15],GI50 [16],GI50 [17],GI50 [18],GI50 [19],GI50 [20]
CCOC(CBr)OC1C(=O)OCC1(C)C (stereo unspecified),> 100 µM (inactive),> 100 µM (inactive),> 100 µM (inactive),> 100 µM (inactive),> 100 µM (inactive),> 100 µM (inactive),> 100 µM (inactive),> 100 µM (inactive),> 100 µM (inactive),> 100,> 100 µM (inactive),> 100 µM (inactive),> 100 µM (inactive),> 100 µM (inactive),> 100 µM (inactive),> 100 µM (inactive),> 100 µM (inactive),> 100 µM (inactive),> 100 µM (inactive),
O=C(C=P(c1ccccc1)(c1ccccc1)c1ccccc1)c1ccc(-c2cccc([N+](=O)[O-])c2)cc1,3.27 µM (inactive),2.88 µM (inactive),2.39 µM (inactive),2.11 µM (inactive),4.36 µM (inactive),5.07 µM (inactive),5.01 µM (inactive),4.03 µM (inactive),3.84 µM (inactive),3.94,3.06 µM (inactive),2.61 µM (inactive),1.91 µM (inactive),4.9 µM (inactive),3.85 µM (inactive),3.48 µM (inactive),,2.96 µM (inactive),3.57 µM (inactive),2.98 µM (inactive)
COc1ccc2c(C=O)c3n(c(=O)c2c1OC)CCc1cc2c(cc1-3)OCO2,32.2 µM (inactive),20 µM (inactive),22.5 µM (inactive),,27.2 µM (inactive),76.4 µM (inactive),> 100 µM (inactive),> 100 µM (inactive),40.6 µM (inactive),27.7,2.91 µM (inactive),> 100 µM (inactive),53.6 µM (inactive),> 100 µM (inactive),27.9 µM (inactive),80 µM (inactive),23.4 µM (inactive),4.59 µM (inactive),15.1 µM (inactive),80.5 µM (inactive)
Cc1cc(NC(=O)NC(=O)c2ccccc2NC(=O)CN)ccc1Oc1ncc(Br)cn1,3.52 µM (inactive),0.105 µM (active),0.145 µM (active),0.971 µM (active),0.74 µM (active),0.929 µM (active),1.18 µM (inactive),,0.743 µM (active),1.41,0.0439 µM (active),20 µM (inactive),0.743 µM (active),0.0308 µM (active),0.401 µM (active),0.0632 µM (active),1.17 µM (inactive),2.5 µM (inactive),0.217 µM (active),0.217 µM (active)
C=C1CN(C2=NCCO2)C1,> 100 µM (inactive),> 100 µM (inactive),> 100 µM (inactive),> 100 µM (inactive),> 100 µM (inactive),> 100 µM (inactive),> 100 µM (inactive),,,> 100,> 100 µM (inactive),> 100 µM (inactive),> 100 µM (inactive),> 100 µM (inactive),> 100 µM (inactive),> 100 µM (inactive),> 100 µM (inactive),> 100 µM (inactive),> 100 µM (inactive),> 100 µM (inactive)
Cc1ccc2c(=O)c(-c3nnc(N)s3)c[nH]c2n1,> 100 µM (inactive),> 100 µM (inactive),> 100 µM (inactive),> 100 µM (inactive),> 100 µM (inactive),> 100 µM (inactive),71.4 µM (inactive),,67.1 µM (inactive),> 100,83.4 µM (inactive),> 100 µM (inactive),> 100 µM (inactive),> 100 µM (inactive),> 100 µM (inactive),> 100 µM (inactive),42.2 µM (inactive),> 100 µM (inactive),> 100 µM (inactive),> 100 µM (inactive)
CC(=O)O[C@H]1C(=O)[C@@]2(C)[C@H]([C@H](OC(=O)c3ccc([N+](=O)[O-])cc3)[C@]3(O)C[C@H](OC(=O)[C@H](O)[C@@H](NC(=O)c4ccccc4)c4ccccc4)C(C)=C1C3(C)C)[C@]1(OC(C)=O)CO[C@@H]1C[C@@H]2O,> 25 µM (inactive),16.8 µM (inactive),> 25 µM (inactive),,> 25 µM (inactive),> 25 µM (inactive),> 25 µM (inactive),> 25 µM (inactive),> 25 µM (inactive),> 25,> 25 µM (inactive),> 25 µM (inactive),> 25 µM (inactive),> 25 µM (inactive),> 25 µM (inactive),> 25 µM (inactive),> 25 µM (inactive),> 25 µM (inactive),> 25 µM (inactive),
